Legend:
Thalamus [1] = assay: Drug uptake in anesthetized cynomolgus monkey brain thalamus after 12.5 mins postinjection; type: ADME, organism-based, Macaca fascicularis; design: unit not given here; details: in vivo
Thalamus [2] = assay: Drug uptake in anesthetized cynomolgus monkey brain thalamus after 6.5 mins postinjection; type: ADME, organism-based, Macaca fascicularis; design: unit not given here; details: in vivo
Putamen [3] = assay: Drug uptake in anesthetized cynomolgus monkey brain putamen after 3.5 mins postinjection; type: ADME, organism-based, Macaca fascicularis; details: in vivo
Putamen [4] = assay: Drug uptake in anesthetized cynomolgus monkey brain putamen after 215 mins postinjection; type: ADME, organism-based, Macaca fascicularis; details: in vivo
[5] = Drug uptake in anesthetized cynomolgus monkey brain occipital lobe after 1.5 mins postinjection; type: ADME, organism-based, Macaca fascicularis; details: in vivo, 0.025 h
[6] = Drug uptake in anesthetized cynomolgus monkey brain occipital lobe after 15.5 mins postinjection; type: ADME, organism-based, Macaca fascicularis; details: in vivo
[7] = Drug uptake in anesthetized cynomolgus monkey brain cerebellum after 15.5 mins postinjection; type: ADME, organism-based, Macaca fascicularis; details: in vivo
[8] = Drug uptake in anesthetized cynomolgus monkey brain frontal lobe after 65 mins postinjection; type: ADME, organism-based, Macaca fascicularis; details: in vivo
[9] = Drug uptake in anesthetized cynomolgus monkey brain frontal lobe after 0.5 mins postinjection; type: ADME, organism-based, Macaca fascicularis; details: in vivo
Putamen [10] = assay: Drug uptake in anesthetized cynomolgus monkey brain putamen after 35 mins postinjection; type: ADME, organism-based, Macaca fascicularis; design: unit not given here; details: in vivo
[11] = Ratio of drug uptake in pons to cerebellum in anesthetized cynomolgus monkey after 145 mins postinjection; type: ADME, organism-based, Macaca fascicularis; details: in vivo
Putamen [12] = assay: Drug uptake in anesthetized cynomolgus monkey brain putamen after 135 mins postinjection; type: ADME, organism-based, Macaca fascicularis; details: in vivo, 2.25 h
Medulla [13] = assay: Drug uptake in anesthetized cynomolgus monkey brain medulla after 1.5 mins postinjection; type: ADME, organism-based, Macaca fascicularis; details: in vivo, 0.025 h
[14] = Ratio of drug uptake in putamen to cerebellum in anesthetized cynomolgus monkey after 235 mins postinjection; type: ADME, organism-based, Macaca fascicularis; details: in vivo
[15] = Ratio of drug uptake in occipital lobe to cerebellum in anesthetized cynomolgus monkey after 12.5 mins postinjection; type: ADME, organism-based, Macaca fascicularis; details: in vivo
[16] = Drug uptake in anesthetized cynomolgus monkey brain occipital lobe after 2.5 mins postinjection; type: ADME, organism-based, Macaca fascicularis; details: in vivo
Medulla [17] = assay: Drug uptake in anesthetized cynomolgus monkey brain medulla after 6.5 mins postinjection; type: ADME, organism-based, Macaca fascicularis; details: in vivo
[18] = Drug uptake in anesthetized cynomolgus monkey brain frontal lobe after 175 mins postinjection; type: ADME, organism-based, Macaca fascicularis; details: in vivo
Caudate [19] = assay: Drug uptake in anesthetized cynomolgus monkey brain caudate after 85 mins postinjection; type: ADME, organism-based, Macaca fascicularis, Caudate nucleus; details: in vivo
Putamen [20] = assay: Drug uptake in anesthetized cynomolgus monkey brain putamen after 125 mins postinjection; type: ADME, organism-based, Macaca fascicularis; details: in vivo
Caudate [21] = assay: Drug uptake in anesthetized cynomolgus monkey brain caudate after 105 mins postinjection; type: ADME, organism-based, Macaca fascicularis, Caudate nucleus; details: in vivo, 1.75 h
Caudate [22] = assay: Drug uptake in anesthetized cynomolgus monkey brain caudate after 165 mins postinjection; type: ADME, organism-based, Macaca fascicularis, Caudate nucleus; details: in vivo, 2.75 h
Thalamus [23] = assay: Drug uptake in anesthetized cynomolgus monkey brain thalamus after 155 mins postinjection; type: ADME, organism-based, Macaca fascicularis; design: unit not given here; details: in vivo
Midbrain [24] = assay: Drug uptake in anesthetized cynomolgus monkey brain midbrain after 155 mins postinjection; type: ADME, organism-based, Macaca fascicularis; details: in vivo
[25] = Ratio of drug uptake in medulla to cerebellum in anesthetized cynomolgus monkey after 95 mins postinjection; type: ADME, organism-based, Macaca fascicularis; details: in vivo
Medulla [26] = assay: Drug uptake in anesthetized cynomolgus monkey brain medulla after 215 mins postinjection; type: ADME, organism-based, Macaca fascicularis; details: in vivo
Pons [27] = assay: Drug uptake in anesthetized cynomolgus monkey brain pons after 2.5 mins postinjection; type: ADME, organism-based, Macaca fascicularis; details: in vivo
Putamen [28] = assay: Drug uptake in anesthetized cynomolgus monkey brain putamen after 85 mins postinjection; type: ADME, organism-based, Macaca fascicularis; design: unit not given here; details: in vivo
Pons [29] = assay: Drug uptake in anesthetized cynomolgus monkey brain pons after 22.5 mins postinjection; type: ADME, organism-based, Macaca fascicularis; details: in vivo, 0.375 h
Pons [30] = assay: Drug uptake in anesthetized cynomolgus monkey brain pons after 18.5 mins postinjection; type: ADME, organism-based, Macaca fascicularis; details: in vivo
[31] = Drug uptake in anesthetized cynomolgus monkey brain occipital lobe after 95 mins postinjection; type: ADME, organism-based, Macaca fascicularis; details: in vivo
Putamen [32] = assay: Drug uptake in anesthetized cynomolgus monkey brain putamen after 55 mins postinjection; type: ADME, organism-based, Macaca fascicularis; design: unit not given here; details: in vivo
[33] = Ratio of drug uptake in putamen to cerebellum in anesthetized cynomolgus monkey after 75 mins postinjection; type: ADME, organism-based, Macaca fascicularis; details: in vivo, 1.25 h
[34] = Ratio of drug uptake in medulla to cerebellum in anesthetized cynomolgus monkey after 65 mins postinjection; type: ADME, organism-based, Macaca fascicularis; details: in vivo
Pons [35] = assay: Drug uptake in anesthetized cynomolgus monkey brain pons after 6.5 mins postinjection; type: ADME, organism-based, Macaca fascicularis; details: in vivo
Midbrain [36] = assay: Drug uptake in anesthetized cynomolgus monkey brain midbrain after 12.5 mins postinjection; type: ADME, organism-based, Macaca fascicularis; design: unit not given here; details: in vivo
[37] = Ratio of drug uptake in thalamus to cerebellum in anesthetized cynomolgus monkey after 27.5 mins postinjection; type: ADME, organism-based, Macaca fascicularis; details: in vivo
Thalamus [38] = assay: Drug uptake in anesthetized cynomolgus monkey brain thalamus after 215 mins postinjection; type: ADME, organism-based, Macaca fascicularis; design: unit not given here; details: in vivo
Pons [39] = assay: Drug uptake in anesthetized cynomolgus monkey brain pons after 1.5 mins postinjection; type: ADME, organism-based, Macaca fascicularis; details: in vivo, 0.025 h
Caudate [40] = assay: Drug uptake in anesthetized cynomolgus monkey brain caudate after 215 mins postinjection; type: ADME, organism-based, Macaca fascicularis, Caudate nucleus; details: in vivo
[41] = Ratio of drug uptake in caudate to cerebellum in anesthetized cynomolgus monkey after 95 mins postinjection; type: ADME, organism-based, Macaca fascicularis; details: in vivo
Midbrain [42] = assay: Drug uptake in anesthetized cynomolgus monkey brain midbrain after 18.5 mins postinjection; type: ADME, organism-based, Macaca fascicularis; design: unit not given here; details: in vivo
Thalamus [43] = assay: Drug uptake in anesthetized cynomolgus monkey brain thalamus after 9.5 mins postinjection; type: ADME, organism-based, Macaca fascicularis; design: unit not given here; details: in vivo
[44] = Ratio of drug uptake in pons to cerebellum in anesthetized cynomolgus monkey after 105 mins postinjection; type: ADME, organism-based, Macaca fascicularis; details: in vivo, 1.75 h
Medulla [45] = assay: Drug uptake in anesthetized cynomolgus monkey brain medulla after 35 mins postinjection; type: ADME, organism-based, Macaca fascicularis; details: in vivo
Medulla [46] = assay: Drug uptake in anesthetized cynomolgus monkey brain medulla after 75 mins postinjection; type: ADME, organism-based, Macaca fascicularis; details: in vivo, 1.25 h
Putamen [47] = assay: Drug uptake in anesthetized cynomolgus monkey brain putamen after 115 mins postinjection; type: ADME, organism-based, Macaca fascicularis; design: unit not given here; details: in vivo
Medulla [48] = assay: Drug uptake in anesthetized cynomolgus monkey brain medulla after 65 mins postinjection; type: ADME, organism-based, Macaca fascicularis; details: in vivo
Putamen [49] = assay: Drug uptake in anesthetized cynomolgus monkey brain putamen after 0.5 mins postinjection; type: ADME, organism-based, Macaca fascicularis; details: in vivo
[50] = Drug uptake in anesthetized cynomolgus monkey brain occipital lobe after 22.5 mins postinjection; type: ADME, organism-based, Macaca fascicularis; details: in vivo, 0.375 h
[51] = Ratio of drug uptake in caudate to cerebellum in anesthetized cynomolgus monkey after 225 mins postinjection; type: ADME, organism-based, Macaca fascicularis; details: in vivo, 3.75 h
[52] = Ratio of drug uptake in midbrain to cerebellum in anesthetized cynomolgus monkey after 95 mins postinjection; type: ADME, organism-based, Macaca fascicularis; details: in vivo
[53] = Drug uptake in anesthetized cynomolgus monkey brain occipital lobe after 4.5 mins postinjection; type: ADME, organism-based, Macaca fascicularis; details: in vivo, 0.075 h
Thalamus [54] = assay: Drug uptake in anesthetized cynomolgus monkey brain thalamus after 135 mins postinjection; type: ADME, organism-based, Macaca fascicularis; design: unit not given here; details: in vivo, 2.25 h
Thalamus [55] = assay: Drug uptake in anesthetized cynomolgus monkey brain thalamus after 0.5 mins postinjection; type: ADME, organism-based, Macaca fascicularis; details: in vivo
[56] = Ratio of drug uptake in caudate to cerebellum in anesthetized cynomolgus monkey after 0.5 mins postinjection; type: ADME, organism-based, Macaca fascicularis; details: in vivo
[57] = Drug uptake in anesthetized cynomolgus monkey brain cerebellum after 1.5 mins postinjection; type: ADME, organism-based, Macaca fascicularis; details: in vivo, 0.025 h
[58] = Drug uptake in anesthetized cynomolgus monkey brain occipital lobe after 225 mins postinjection; type: ADME, organism-based, Macaca fascicularis; details: in vivo, 3.75 h
Medulla [59] = assay: Drug uptake in anesthetized cynomolgus monkey brain medulla after 85 mins postinjection; type: ADME, organism-based, Macaca fascicularis; details: in vivo
[60] = Drug uptake in anesthetized cynomolgus monkey brain occipital lobe after 45 mins postinjection; type: ADME, organism-based, Macaca fascicularis; details: in vivo, 0.75 h
Thalamus [61] = assay: Drug uptake in anesthetized cynomolgus monkey brain thalamus after 4.5 mins postinjection; type: ADME, organism-based, Macaca fascicularis; design: unit not given here; details: in vivo, 0.075 h
[62] = Drug uptake in anesthetized cynomolgus monkey brain cerebellum after 27.5 mins postinjection; type: ADME, organism-based, Macaca fascicularis; details: in vivo
[63] = Drug uptake in anesthetized cynomolgus monkey brain cerebellum after 155 mins postinjection; type: ADME, organism-based, Macaca fascicularis; details: in vivo
Pons [64] = assay: Drug uptake in anesthetized cynomolgus monkey brain pons after 115 mins postinjection; type: ADME, organism-based, Macaca fascicularis; details: in vivo
Medulla [65] = assay: Drug uptake in anesthetized cynomolgus monkey brain medulla after 12.5 mins postinjection; type: ADME, organism-based, Macaca fascicularis; details: in vivo
Caudate [66] = assay: Drug uptake in anesthetized cynomolgus monkey brain caudate after 155 mins postinjection; type: ADME, organism-based, Macaca fascicularis, Caudate nucleus; details: in vivo
[67] = Drug uptake in anesthetized cynomolgus monkey brain cerebellum after 225 mins postinjection; type: ADME, organism-based, Macaca fascicularis; details: in vivo, 3.75 h

With `O=C(OCCC[18F])C1C2CCC(CC1c1cccc(/C=C\Br)c1)N2` (configuration not stated) the Drug uptake (Thalamus [1]) was 4.31, the Drug uptake (Thalamus [2]) was 3.71 and the Drug uptake (Putamen [3]) was 2.28. The Drug uptake (Putamen [4]) was 3.51, the Drug uptake [5] was 0.3 and the Drug uptake [6] was 4.29. The Drug uptake [7] was 5.62, the Drug uptake [8] was 3.69 and the Drug uptake [9] was 0.01. For the same molecule, the Drug uptake (Putamen [10]) was 6.11, the Ratio [11] was 1.6 and the Drug uptake (Putamen [12]) was 4.74. It also gave a Drug uptake (Medulla [13]) of 0.42, a Ratio [14] of 1.7 and a Ratio [15] of 0.7. For the same molecule, the Drug uptake [16] was 1.03, the Drug uptake (Medulla [17]) was 5.26 and the Drug uptake [18] was 2.51. The Drug uptake (Caudate [19]) was 5.23, the Drug uptake (Putamen [20]) was 4.82 and the Drug uptake (Caudate [21]) was 4.9. It also gave a Drug uptake (Caudate [22]) of 4.01, a Drug uptake (Thalamus [23]) of 4.27 and a Drug uptake (Midbrain [24]) of 5.23. The Ratio [25] was 1.5, the Drug uptake (Medulla [26]) was 3.67 and the Drug uptake (Pons [27]) was 0.9. For the same molecule, the Drug uptake (Putamen [28]) was 5.54, the Drug uptake (Pons [29]) was 4.89 and the Drug uptake (Pons [30]) was 4.55. It also gave a Drug uptake [31] of 4.16, a Drug uptake (Putamen [32]) of 5.97 and a Ratio [33] of 1.4. For the same molecule, the Ratio [34] was 1.3, the Drug uptake (Pons [35]) was 3.6 and the Drug uptake (Midbrain [36]) was 5.24. The Ratio [37] was 0.9, the Drug uptake (Thalamus [38]) was 3.62 and the Drug uptake (Pons [39]) was 0.38. The Drug uptake (Caudate [40]) was 3.62, the Ratio [41] was 1.3 and the Drug uptake (Midbrain [42]) was 5.49. For the same molecule, the Drug uptake (Thalamus [43]) was 4.02, the Ratio [44] was 1.3 and the Drug uptake (Medulla [45]) was 5.92. For the same molecule, the Drug uptake (Medulla [46]) was 5.49, the Drug uptake (Putamen [47]) was 5.03 and the Drug uptake (Medulla [48]) was 5.61. The Drug uptake (Putamen [49]) was 0.01, the Drug uptake [50] was 4.5 and the Ratio [51] was 1.7. For the same molecule, the Ratio [52] was 1.5, the Drug uptake [53] was 2.44 and the Drug uptake (Thalamus [54]) was 4.58. It also gave a Drug uptake (Thalamus [55]) of 0.01, a Ratio [56] of 0.9 and a Drug uptake [57] of 0.48. For the same molecule, the Drug uptake [58] was 2.54, the Drug uptake (Medulla [59]) was 5.41 and the Drug uptake [60] was 4.61. For the same molecule, the Drug uptake (Thalamus [61]) was 2.48, the Drug uptake [62] was 5.61 and the Drug uptake [63] was 2.62. For the same molecule, the Drug uptake (Pons [64]) was 4.2, the Drug uptake (Medulla [65]) was 5.82 and the Drug uptake (Caudate [66]) was 4.18. The Drug uptake [67] was 2.03.

Reference: ChEMBL document CHEMBL1151757, “Synthesis, radiosynthesis, and biological evaluation of fluorine-18-labeled 2beta-carbo(fluoroalkoxy)-3beta-(3'-((Z)-2-haloethenyl)phenyl)nortropanes: candidate radioligands for in vivo imaging of the serotonin transporter with positron emission tomography” (J Med Chem, 2008)
